From ChEMBL document CHEMBL4002569, “Improved anticancer and antiparasitic activity of new lawsone Mannich bases” (Eur J Med Chem, 2017)
One block for each compound: values may come before it. Calls of active or inactive are those of the source. No cut-off for these calls is given here.

Assays:
MDA-MB-231 [1] = experiment: Antiproliferative activity against human MDA-MB-231 cells at >10 to 25 uM after 96 hrs by MTT assay; type: functional, cell-based
BXPC-3 [2] = experiment: Antiproliferative activity against human BxPC3 cells at >10 to 25 uM after 96 hrs by MTT assay; type: functional, cell-based
PC-3 [3] = experiment: Antiproliferative activity against human PC3 cells at >10 to 25 uM after 96 hrs by MTT assay; type: functional, cell-based
MDA-MB-231 [4] = experiment: Antiproliferative activity against human MDA-MB-231 cells at <10 uM after 96 hrs by MTT assay; type: functional, cell-based
BXPC-3 [5] = experiment: Antiproliferative activity against human BxPC3 cells at <10 uM after 96 hrs by MTT assay; type: functional, cell-based
PC-3 [6] = experiment: Antiproliferative activity against human PC3 cells at <10 uM after 96 hrs by MTT assay; type: functional, cell-based
MDA-MB-231 [7] = experiment: Antiproliferative activity against human MDA-MB-231 cells at 1 to 50 uM after 96 hrs by MTT assay; type: functional, cell-based
BXPC-3 [8] = experiment: Antiproliferative activity against human BxPC3 cells at 1 to 50 uM after 96 hrs by MTT assay; type: functional, cell-based
PC-3 [9] = experiment: Antiproliferative activity against human PC3 cells at 1 to 50 uM after 96 hrs by MTT assay; type: functional, cell-based
518A2 [10] = experiment: Antiproliferative activity against human 518A2 cells after 72 hrs by MTT assay; type: functional, cell-based; settings: 518A2, 72 h
HCT-116 = experiment: Antiproliferative activity against human HCT116 cells after 72 hrs by MTT assay; type: functional, cell-based; settings: HCT-116, 72 h
KB-V1 = experiment: Antiproliferative activity against vinblastine-resistant human KBV1 cells after 72 hrs by MTT assay; type: functional, cell-based; settings: KB-V1, 72 h
PANC-1 = experiment: Antiproliferative activity against human PANC1 cells after 72 hrs by MTT assay; type: functional, cell-based; settings: PANC-1, 72 h
518A2 [11] = experiment: Induction of reactive oxygen species generation in human 518A2 cells at 0.1 uM after 24 hrs by NBT assay relative to control; type: functional
518A2 [12] = experiment: Induction of reactive oxygen species generation in human 518A2 cells at 0.5 uM after 24 hrs by NBT assay relative to control; type: functional
[13] = test system: Trypanosoma brucei brucei; experiment: Antitrypanosomal activity against bloodstream trypomastigote form of Trypanosoma brucei brucei 65.3 […] after 72 hrs by Alamar Blue assay; type: functional, cell-based; settings: Trypanosoma brucei, 65.3, 72 h
[14] = test system: Trypanosoma brucei brucei; experiment: Antitrypanosomal activity against bloodstream trypomastigote form of Trypanosoma brucei brucei 65.3 assessed as deformation of microtubule cytoskeleton at 1 uM after 0.5 to 24 hrs by DAPI staining-based fluorescence microscopic method; type: functional
[15] = test system: Trypanosoma brucei brucei; experiment: Antitrypanosomal activity against bloodstream trypomastigote form of Trypanosoma brucei brucei 65.3 assessed as decrease in parasite motility at 1 uM after 0.5 to 24 hrs by DAPI staining-based fluorescence microscopic method relative to control; type: functional
HeLa [16] = experiment: Cytotoxicity against human HeLa cells assessed as effect on cytoskeleton at 10 uM after 1 to 9 hrs by DAPI staining-based fluorescence microscopic method; type: cell-based
HeLa [17] = experiment: Cytotoxicity against human HeLa cells assessed as effect on cell viability at 10 uM after 1 to 9 hrs by DAPI staining-based fluorescence microscopic method
[18] = test system: Trypanosoma brucei brucei; experiment: Antitrypanosomal activity against bloodstream trypomastigote form of Trypanosoma brucei brucei 65.3 assessed as deformation of microtubule cytoskeleton at 10 uM after 3 to 6 hrs by DAPI staining-based fluorescence microscopic method; type: functional
MDA-MB-231 [19] = experiment: Antiproliferative activity against human MDA-MB-231 cells after 96 hrs by MTT assay; type: functional, cell-based; settings: MDA-MB-231, 96 h
BXPC-3 [20] = experiment: Antiproliferative activity against human BxPC3 cells after 96 hrs by MTT assay; type: functional, cell-based; settings: BXPC-3, 96 h
PC-3 [21] = experiment: Antiproliferative activity against human PC3 cells after 96 hrs by MTT assay; type: functional, cell-based; settings: PC-3, 96 h
MCF-10A = experiment: Antiproliferative activity against human MCF10A cells at 50 uM after 96 hrs by MTT assay; type: cell-based
[22] = Selectivity index, ratio of IC50 for human MCF10A cells to IC50 for human 518A2 cells; type: functional
[23] = Selectivity index, ratio of IC50 for human MCF10A cells to IC50 for human HCT116 cells; type: functional
[24] = Selectivity index, ratio of IC50 for human MCF10A cells to IC50 for vinblastine-resistant human KBV1 cells; type: functional
[25] = Selectivity index, ratio of IC50 for human MCF10A cells to IC50 for human PANC1 cells; type: functional
[26] = Selectivity index, ratio of IC50 for human MCF10A cells to IC50 for human MDA-MB-231 cells; type: functional
[27] = Selectivity index, ratio of IC50 for human MCF10A cells to IC50 for human BxPC3 cells; type: functional
[28] = Selectivity index, ratio of IC50 for human MCF10A cells to IC50 for human PC3 cells; type: functional
[29] = test system: Trypanosoma brucei brucei; experiment: Antitrypanosomal activity against bloodstream trypomastigote form of Trypanosoma brucei brucei 65.3 assessed as deformation of microtubule cytoskeleton at 1 to 10 uM after 3 to 6 hrs by DAPI staining-based fluorescence microscopic method; type: functional
[30] = test system: Trypanosoma brucei brucei; experiment: Antitrypanosomal activity against bloodstream trypomastigote form of Trypanosoma brucei brucei 65.3 assessed as decrease in parasite viability at 1 to 10 uM after 1 hr by DAPI staining-based fluorescence microscopic method; type: functional
Entamoeba histolytica [31] = experiment: Antiamoebic activity against Entamoeba histolytica assessed as growth inhibition at 100 ug/ml after 24 hrs by trypan blue dye-based hemocytometer relative to control; type: functional; settings: read-out: GI
Entamoeba histolytica [32] = experiment: Antiamoebic activity against Entamoeba histolytica assessed as growth inhibition at 50 ug/ml after 24 hrs by trypan blue dye-based hemocytometer relative to control; type: functional; settings: read-out: GI
Entamoeba histolytica [33] = experiment: Antiamoebic activity against Entamoeba histolytica assessed as growth inhibition at 25 ug/ml after 24 hrs by trypan blue dye-based hemocytometer relative to control; type: functional; settings: read-out: GI
Entamoeba histolytica [34] = experiment: Antiamoebic activity against Entamoeba histolytica assessed as growth inhibition at 100 ug/ml after 48 hrs by trypan blue dye-based hemocytometer relative to control; type: functional; settings: read-out: GI
Entamoeba histolytica [35] = experiment: Antiamoebic activity against Entamoeba histolytica assessed as growth inhibition at 50 ug/ml after 48 hrs by trypan blue dye-based hemocytometer relative to control; type: functional; settings: read-out: GI
Entamoeba histolytica [36] = experiment: Antiamoebic activity against Entamoeba histolytica assessed as growth inhibition at 25 ug/ml after 48 hrs by trypan blue dye-based hemocytometer relative to control; type: functional; settings: read-out: GI
Entamoeba histolytica [37] = experiment: Antiamoebic activity against Entamoeba histolytica assessed as growth inhibition at 100 ug/ml after 72 hrs by trypan blue dye-based hemocytometer relative to control; type: functional; settings: read-out: GI
Entamoeba histolytica [38] = experiment: Antiamoebic activity against Entamoeba histolytica assessed as growth inhibition at 50 ug/ml after 72 hrs by trypan blue dye-based hemocytometer relative to control; type: functional; settings: read-out: GI
Entamoeba histolytica [39] = experiment: Antiamoebic activity against Entamoeba histolytica assessed as growth inhibition at 25 ug/ml after 72 hrs by trypan blue dye-based hemocytometer relative to control; type: functional; settings: read-out: GI

Structure (SMILES): CCCCCCCCCCCCCCNC(C1=C(O)C(=O)c2ccccc2C1=O)c1ccc(F)c(F)c1 (stereo unspecified)
growth inhibition (GI) (MDA-MB-231 [1]): Active | growth inhibition (GI) (BXPC-3 [2]): Active | growth inhibition (GI) (PC-3 [3]): Active | growth inhibition (GI) (MDA-MB-231 [4]): inactive | growth inhibition (GI) (BXPC-3 [5]): inactive | growth inhibition (GI) (PC-3 [6]): inactive

Structure (SMILES): CCCCCCCCCCCCCCCCNC(C1=C(O)C(=O)c2ccccc2C1=O)c1ccc(O)c(OC)c1 (stereo unspecified)
growth inhibition (GI) (MDA-MB-231 [7]): Active | growth inhibition (GI) (BXPC-3 [8]): Active | growth inhibition (GI) (PC-3 [9]): Active | IC50 (518A2 [10]): 12200 nM | IC50 (HCT-116): 11400 nM | IC50 (KB-V1): 16800 nM | IC50 (PANC-1): 7940 nM

Structure (SMILES): O=C1C(O)=C(C(NCc2ccccn2)c2ccc(F)c(F)c2)C(=O)c2ccccc21 (stereo unspecified)
growth inhibition (GI) (MDA-MB-231 [1]): Active | growth inhibition (GI) (BXPC-3 [2]): Active | growth inhibition (GI) (PC-3 [3]): Active | growth inhibition (GI) (MDA-MB-231 [4]): inactive | growth inhibition (GI) (BXPC-3 [5]): inactive | growth inhibition (GI) (PC-3 [6]): inactive

Structure (SMILES): N=C(N)c1ccc(OCCCCCOc2ccc(C(=N)N)cc2)cc1 [PENTAMIDINE]
IC50 [13]: 5 nM

Structure (SMILES): CCCCCCCCCCCCCCCCNC(C1=C(O)C(=O)c2ccccc2C1=O)c1ccccn1 (stereo unspecified)
IC50 (MDA-MB-231 [19]): 1100 nM | IC50 (BXPC-3 [20]): 820 nM | IC50 (PC-3 [21]): 670 nM | growth inhibition (GI) (MCF-10A): Non-Toxic | IC50 (518A2 [10]): 1410 nM | IC50 (HCT-116): 2080 nM | IC50 (KB-V1): 830 nM | IC50 (PANC-1): 2190 nM | Ratio IC50 [22]: >35 | Ratio IC50 [23]: >24 | Ratio IC50 [24]: >60 | Ratio IC50 [25]: >22 | Ratio IC50 [26]: >46 | Ratio IC50 [27]: >61 | Ratio IC50 [28]: >75 | Activity (518A2 [11]): 50% | Activity (518A2 [12]): Active | IC50 [13]: 303 nM | Activity [29]: Active | Activity [30]: inactive | Activity (HeLa [16]): Non-Toxic | Activity (HeLa [17]): Non-Toxic | inhibition of growth at 100 µg/mL (Entamoeba histolytica [31]): 77.8% | inhibition of growth at 50 µg/mL (Entamoeba histolytica [32]): 66.6% | inhibition of growth at 25 µg/mL (Entamoeba histolytica [33]): 60% | inhibition of growth at 100 µg/mL (Entamoeba histolytica [34]): 80.9% | inhibition of growth at 50 µg/mL (Entamoeba histolytica [35]): 82.1% | inhibition of growth at 25 µg/mL (Entamoeba histolytica [36]): 66% | inhibition of growth at 100 µg/mL (Entamoeba histolytica [37]): 82.8% | inhibition of growth at 50 µg/mL (Entamoeba histolytica [38]): 85.3% | inhibition of growth at 25 µg/mL (Entamoeba histolytica [39]): 70.6%

Now from value to compound, other results behind:

IC50 (HCT-116): 3460 nM | IC50 (KB-V1): 320 nM | IC50 (PANC-1): 1790 nM | IC50 [13]: 646 nM
Structure (SMILES): CCCCCCCCCCCCNC(C1=C(O)C(=O)c2ccccc2C1=O)c1ccccn1 (stereo unspecified)
growth inhibition (GI) (MDA-MB-231 [7]): Active | growth inhibition (GI) (BXPC-3 [8]): Active | growth inhibition (GI) (PC-3 [9]): Active | IC50 (518A2 [10]): 2570 nM | Activity (518A2 [11]): 50% | Activity (518A2 [12]): 70% | Activity [14]: Active | Activity [15]: Active | Activity (HeLa [16]): Non-Toxic | Activity (HeLa [17]): Non-Toxic

IC50 (HCT-116): 6390 nM | IC50 (KB-V1): 410 nM | IC50 (PANC-1): 6410 nM | IC50 [13]: 3730 nM
Structure (SMILES): CCCCCCCNC(C1=C(O)C(=O)c2ccccc2C1=O)c1ccccn1 (stereo unspecified)
IC50 (518A2 [10]): 2580 nM | Activity (518A2 [11]): 50% | Activity (518A2 [12]): 70% | Activity [18]: inactive

IC50 (HCT-116): 5680 nM | IC50 (KB-V1): 1560 nM | IC50 (PANC-1): 7720 nM
Structure (SMILES): O=C1C(O)=C(C(NCc2ccc(F)c(F)c2)c2ccccn2)C(=O)c2ccccc21 (stereo unspecified)
IC50 (518A2 [10]): 3050 nM

IC50 (HCT-116): 6770 nM | IC50 (KB-V1): 8610 nM | IC50 (PANC-1): 17600 nM
Structure (SMILES): O=C1C(O)=C(C(NCc2ccccn2)c2ccccn2)C(=O)c2ccccc21 (stereo unspecified)
IC50 (518A2 [10]): 6980 nM
